Data on one substance can be found in PMC13379236 (Cell reports, 2026).

The subject of assay [1] is ZYG11B. In kind it is cell-based, human.
The subject of another assay is NLRP1 inflammasome. It is filed as cell-based, human.
The next assay concerns innate immune response. The note with it: cited from earlier work.
Assay [2] concerns ZYG11B. The note with it: cited from earlier work.

“Also recorded” adds a separate entry of the source.

Turning to “ORF10: SARS-CoV-2 protein ORF10, overexpressed”, in the assay with ZYG11B [1], the “ORF10 binding to ZYG11B E644K” value is “decrease the binding”, the “ORF10 binding to ZYG11B K515E” value was “substantially enhance binding” and the “ORF10 binding to ZYG11B R466A” value was “minimal effect; also recorded: did not strongly affect ORF10 binding”. In the assay with NLRP1 inflammasome, the “effect of ORF10 on inflammasome activation with NLRP1 E133K” value is “no decrease in inflammasome activation” and the “inhibition of HRV 3Cpro-mediated activation of wild-type NLRP1” value was “could inhibit HRV 3Cpro-mediated activation of NLRP1”. Besides, the “effect on innate immune response” value with innate immune response was “can suppress the innate immune response”. Moreover, in the assay on ZYG11B [2], the “interaction with ZYG11B” value was “interacts with ZYG11B”.
